Laboratory results reported in DBAASP.
Converted amounts (≈) assume the structure as drawn.

Tests used:
Assay in all cases: ≥ marks a high value that may be exact or a test limit, other limits are often not marked, values filed in µg/mL are converted to µM
[1] = tested on: Candida albicans ATCC 2002
[2] = tested on: Escherichia coli ATCC 25922
[3] = tested on: Staphylococcus aureus ATCC 2592
[4] = tested on: Bacillus subtilis ATCC 6633
Shigella dysenteriae = tested on: Shigella dysenteriae
[5] = tested on: Bacillus subtilis ATCC 23857
[6] = tested on: Pseudomonas aeruginosa ATCC 9027
[7] = tested on: Staphylococcus aureus ATCC 6538
Escherichia coli = tested on: Escherichia coli
[8] = tested on: Klebsiella pneumoniae ATCC 700603
[9] = tested on: Staphylococcus aureus ATCC 25923
[10] = tested on: Staphylococcus epidermidis ATCC 12228
[11] = tested on: Micrococcus luteus ATCC 9341
Bacillus cereus = tested on: Bacillus cereus
Pseudomonas aeruginosa = tested on: Pseudomonas aeruginosa
Escherichia coli JW0013 = tested on: Escherichia coli JW0013

With `CC[C@H](C)[C@H](NC(=O)[C@H](CC(C)C)NC(=O)[C@@H](N)Cc1ccccc1)C(=O)N[C@H](C(=O)N[C@@H](CCCN=C(N)N)C(=O)N[C@@H](CCCN=C(N)N)C(=O)N1CCC[C@H]1C(=O)N[C@H](C(=O)N[C@H](C(=O)N[C@@H](CC(C)C)C(=O)NCC(=O)N[C@@H](CC(C)C)C(=O)N[C@@H](CC(C)C)C(N)=O)C(C)C)[C@@H](C)CC)[C@@H](C)CC` [FLIIRRPIVLGLL] the MIC [1] was 8.21 µM (≈ 12.5 µg/mL), the MIC [2] was 19.7 µM (≈ 30 µg/mL) and the MIC [3] was 6.57 µM (≈ 9.99 µg/mL).

`CC[C@H](C)[C@@H]1NC(=O)[C@@H]2CCCN2C(=O)[C@@H](NC(=O)[C@H](Cc2ccccc2)NC(=O)[C@H](CC(C)C)NC(=O)[C@@H](NC(=O)[C@@H]2CCCN2C(=O)[C@@H](NC(=O)[C@@H](NC(=O)[C@H](CCCCN)NC(=O)[C@H](Cc2ccccc2)NC(=O)[C@H](C)NC(=O)[C@@H](NC(=O)[C@H](CCCCN)NC(=O)[C@H](CC(C)C)NC(=O)[C@H](CC(C)C)NC(=O)[C@@H](NC(=O)[C@H](CO)NC(=O)[C@H](CC(C)C)NC(=O)[C@@H](N)Cc2ccccc2)[C@@H](C)O)C(C)C)C(C)C)C(C)C)[C@@H](C)O)CSSC[C@@H](C(N)=O)NC(=O)[C@H](CCCCN)NC(=O)[C@H](CCCCN)NC(=O)[C@H]([C@@H](C)O)NC1=O` [FLSTLLKVAFKVVPTLFCPITKKC] was tested, and the MIC [4] was 1.74 µM (≈ 4.69 µg/mL), the MIC [1] was 1.74 µM (≈ 4.69 µg/mL) and the MIC [2] was 6.95 µM (≈ 18.7 µg/mL). For the same molecule, the MIC (Shigella dysenteriae) was 3.48 µM (≈ 9.37 µg/mL) and the MIC [3] was 0.434 µM (≈ 1.17 µg/mL).

Work on `CC[C@H](C)[C@H](NC(=O)CN)C(=O)N[C@H](C(=O)N[C@@H](C)C(=O)NCC(=O)N[C@H](C(=O)N[C@H](C(=O)N[C@H](C(=O)N[C@@H](CCCCN)C(=O)N[C@H](C(=O)N[C@@H](CCCCN)C(=O)N[C@@H](C)C(N)=O)[C@@H](C)CC)[C@@H](C)CC)[C@@H](C)CC)[C@@H](C)CC)[C@@H](C)CC` [GIIAGIIIKIKA] yielded an MIC [5] of at least 128 µM and an MIC [2] of over 128 µM.

For `CC[C@H](C)[C@H](NC(=O)[C@H](CCCCN)NC(=O)[C@H](CCCCN)NC(=O)[C@@H](NC(=O)[C@@H](NC(=O)[C@H](CCCCN)NC(=O)[C@H](CCCCN)NC(=O)[C@@H](NC(=O)[C@@H](NC(=O)[C@H](CCCCN)NC(=O)[C@H](CCCCN)NC(=O)[C@@H](NC(=O)[C@@H](NC(=O)CN)[C@@H](C)CC)C(C)C)[C@@H](C)CC)C(C)C)[C@@H](C)CC)C(C)C)C(N)=O` [GIVKKIVKKIVKKI], the MIC [5] was 1.7 µM (≈ 2.71 µg/mL), the MIC [2] was 22 µM (≈ 35 µg/mL) and the MIC [6] was 21 µM (≈ 33.5 µg/mL). For the same molecule, the MIC [7] was 128 µM (≈ 204 µg/mL).

For `CC[C@H](C)[C@H](NC(=O)[C@H](CCCCN)NC(=O)[C@H](CCCCN)NC(=O)[C@H](C)NC(=O)[C@@H](NC(=O)[C@H](C)NC(=O)[C@H](CC(C)C)NC(=O)[C@H](CC(C)C)NC(=O)[C@H](C)NC(=O)[C@H](CCCCN)NC(=O)[C@H](CC(C)C)NC(=O)[C@H](CC(N)=O)NC(=O)CN)C(C)C)C(=O)N[C@@H](CC(C)C)C(N)=O` [GNLKALLAVAKKIL], the MIC [5] was 4 µM (≈ 5.8 µg/mL), the MIC (Escherichia coli) was 8 µM (≈ 11.6 µg/mL) and the MIC [8] was 16 µM (≈ 23.2 µg/mL). For the same molecule, the MIC [9] was 32 µM (≈ 46.4 µg/mL).

`CC[C@H](C)[C@H](N)C(=O)N[C@@H](CC(C)C)C(=O)NCC(=O)N[C@H](C(=O)N[C@H](C(=O)N[C@@H](CC(C)C)C(=O)NCC(=O)N[C@@H](CC(C)C)C(=O)N[C@@H](CC(C)C)C(=O)N[C@@H](CCCCN)C(=O)N[C@@H](C)C(=O)N[C@@H](CC(C)C)C(N)=O)[C@@H](C)CC)[C@@H](C)O` [ILGTILGLLKAL] gave an MIC [5] of 8 µM (≈ 9.79 µg/mL), an MIC [2] of 64 µM (≈ 78.3 µg/mL) and an MIC [9] of 16 µM (≈ 19.6 µg/mL). The MIC [10] was 16 µM (≈ 19.6 µg/mL).

In the case of `CC[C@H](C)[C@H](N)C(=O)N[C@@H](CC(C)C)C(=O)N1CCC[C@H]1C(=O)N[C@@H](Cc1cnc[nH]1)C(=O)N[C@@H](CCCCN)C(=O)N[C@@H](Cc1cnc[nH]1)C(=O)N1CCC[C@H]1C(=O)N[C@@H](Cc1cnc[nH]1)C(=O)N[C@@H](Cc1cnc[nH]1)C(=O)N1CCC[C@H]1C(=O)N[C@@H](Cc1cnc[nH]1)C(=O)N[C@@H](CCCN=C(N)N)C(=O)N[C@@H](CCCN=C(N)N)C(N)=O` [ILPHKHPHHPHRR], the MIC [11] is reported as at least 100 µM.

Molecule `CSCC[C@@H]1NC(=O)[C@H](CC(C)C)NC(=O)[C@H](C)NC(=O)[C@H](CCCN=C(N)N)NC(=O)[C@H](Cc2ccccc2)NC(=O)[C@H](CC(C)C)NC(=O)CNC(=O)[C@H](CCCCN)NC(=O)[C@@H](NC(=O)[C@H](CCCN=C(N)N)NC(=O)[C@@H]2CCCN2C(=O)[C@@H](NC(=O)[C@H](CO)NC(=O)[C@H](Cc2ccc(O)cc2)NC(=O)[C@H](C)NC(=O)[C@@H](N)CCCCN)[C@@H](C)O)CSSC[C@@H](C(=O)N[C@@H](Cc2c[nH]c3ccccc23)C(=O)N[C@@H](CC(C)C)C(N)=O)NC1=O` [KAYSTPRCKGLFRALMCWL] has an MIC (Bacillus cereus) of 22.3 µM (≈ 49.9 µg/mL), an MIC [1] of 22.3 µM (≈ 49.9 µg/mL) and an MIC [2] of 5.57 µM (≈ 12.5 µg/mL). For the same molecule, the MIC (Pseudomonas aeruginosa) was 22.3 µM (≈ 49.9 µg/mL), the MIC (Shigella dysenteriae) was 2.78 µM (≈ 6.24 µg/mL) and the MIC [3] was 5.57 µM (≈ 12.5 µg/mL).

In the case of `CC[C@H](C)[C@H](NC(=O)[C@H](CCCN=C(N)N)NC(=O)[C@H](CCCN=C(N)N)NC(=O)[C@@H]1CCCN1C(=O)[C@@H]1CCCN1C(=O)[C@H](CCCN=C(N)N)NC(=O)[C@H](CCCN=C(N)N)NC(=O)[C@H](CCCN=C(N)N)NC(=O)[C@@H]1CCCN1C(=O)[C@H](CC(C)C)NC(=O)[C@H](CCCN=C(N)N)NC(=O)[C@@H]1CCCN1C(=O)[C@H](CCCCN)NC(=O)[C@H](CCCCN)NC(=O)[C@H](CC(=O)O)NC(=O)[C@@H](N)C(C)C)C(=O)N[C@@H](Cc1ccc(O)cc1)C(=O)N[C@@H](CC(N)=O)C(=O)N[C@@H](CCCN=C(N)N)C(N)=O` [VDKKPRLPRRRPPRRIYNR], the MIC (Escherichia coli JW0013) is reported as 0.687 µM (≈ 1.7 µg/mL).

For `CC[C@H](C)[C@H](NC(=O)[C@H](CCCN=C(N)N)NC(=O)[C@H](CCCN=C(N)N)NC(=O)[C@@H]1CCCN1C(=O)[C@@H]1CCCN1C(=O)[C@H](CCCN=C(N)N)NC(=O)[C@H](CCCN=C(N)N)NC(=O)[C@H](CCCN=C(N)N)NC(=O)[C@@H]1CCCN1C(=O)[C@H](CCCCN)NC(=O)[C@H](Cc1ccc(O)cc1)NC(=O)[C@@H]1CCCN1C(=O)[C@H](CCCCN)NC(=O)[C@H](CCCCN)NC(=O)[C@H](CC(=O)O)NC(=O)[C@@H](N)C(C)C)C(=O)N[C@@H](Cc1ccc(O)cc1)C(=O)N[C@@H](CC(N)=O)C(=O)N[C@@H](CCCN=C(N)N)C(N)=O` [VDKKPYKPRRRPPRRIYNR], the MIC (Escherichia coli JW0013) was 0.481 µM (≈ 1.2 µg/mL).

`CC[C@H](C)[C@H](NC(=O)[C@H](CCCN=C(N)N)NC(=O)[C@H](CCCN=C(N)N)NC(=O)[C@@H]1CCCN1C(=O)[C@@H]1CCCN1C(=O)[C@H](CCCN=C(N)N)NC(=O)[C@H](CCCN=C(N)N)NC(=O)[C@H](CCCN=C(N)N)NC(=O)[C@@H]1CCCN1C(=O)[C@H](CC(C)C)NC(=O)[C@H](Cc1ccc(O)cc1)NC(=O)[C@H](Cc1cnc[nH]1)NC(=O)[C@H](CCCN=C(N)N)NC(=O)[C@H](CCCCN)NC(=O)[C@H](CC(=O)O)NC(=O)[C@@H](N)C(C)C)C(=O)N[C@@H](Cc1ccc(O)cc1)C(=O)N[C@@H](CC(N)=O)C(=O)N[C@@H](CCCN=C(N)N)C(N)=O` [VDKRHYLPRRRPPRRIYNR] showed an MIC (Escherichia coli JW0013) of 0.628 µM (≈ 1.6 µg/mL).

Work on `CC[C@H](C)[C@H](NC(=O)[C@H](CCCN=C(N)N)NC(=O)[C@H](CCCN=C(N)N)NC(=O)[C@@H]1CCCN1C(=O)[C@@H]1CCCN1C(=O)[C@H](CCCN=C(N)N)NC(=O)[C@@H]1CCCN1C(=O)[C@H](CCCN=C(N)N)NC(=O)[C@@H]1CCCN1C(=O)[C@H](CCCCN)NC(=O)[C@H](CCCN=C(N)N)NC(=O)[C@@H]1CCCN1C(=O)[C@H](CCCN=C(N)N)NC(=O)[C@H](CCCCN)NC(=O)[C@H](CC(=O)O)NC(=O)[C@@H](N)C(C)C)C(=O)N[C@@H](Cc1ccc(O)cc1)C(=O)N[C@@H](CC(N)=O)C(=O)N[C@@H](CCCN=C(N)N)C(N)=O` [VDKRPRKPRPRPPRRIYNR] yielded an MIC (Escherichia coli JW0013) of 1.34 µM (≈ 3.3 µg/mL).

`CC[C@H](C)[C@H](NC(=O)[C@H](CCCN=C(N)N)NC(=O)[C@H](CCCN=C(N)N)NC(=O)[C@@H]1CCCN1C(=O)[C@@H]1CCCN1C(=O)[C@H](CCCN=C(N)N)NC(=O)[C@H](CCCCN)NC(=O)[C@H](CCCN=C(N)N)NC(=O)[C@@H]1CCCN1C(=O)[C@H](CCCCN)NC(=O)[C@H](Cc1ccc(O)cc1)NC(=O)[C@@H]1CCCN1C(=O)[C@H](CCCN=C(N)N)NC(=O)[C@H](CCCCN)NC(=O)[C@H](CC(=O)O)NC(=O)[C@@H](N)C(C)C)C(=O)N[C@@H](Cc1ccc(O)cc1)C(=O)N[C@@H](CC(N)=O)C(=O)N[C@@H](CCCN=C(N)N)C(N)=O` [VDKRPYKPRKRPPRRIYNR] showed an MIC (Escherichia coli JW0013) of 1.24 µM (≈ 3.1 µg/mL).

`CC[C@H](C)[C@H](NC(=O)[C@H](CCCN=C(N)N)NC(=O)[C@H](CCCN=C(N)N)NC(=O)[C@@H]1CCCN1C(=O)[C@@H]1CCCN1C(=O)[C@H](CCCN=C(N)N)NC(=O)[C@@H]1CCCN1C(=O)[C@H](CCCN=C(N)N)NC(=O)[C@@H]1CCCN1C(=O)[C@H](CC(C)C)NC(=O)[C@H](Cc1ccc(O)cc1)NC(=O)[C@@H]1CCCN1C(=O)[C@@H]1CCCN1C(=O)[C@H](CCCCN)NC(=O)[C@H](Cc1ccccc1)NC(=O)[C@@H](N)C(C)C)C(=O)N[C@@H](Cc1ccc(O)cc1)C(=O)N[C@@H](CC(N)=O)C(=O)N[C@@H](CCCN=C(N)N)C(N)=O` [VFKPPYLPRPRPPRRIYNR] was tested, and the MIC (Escherichia coli JW0013) was 1.98 µM (≈ 4.8 µg/mL).
